Assay results published in patent US20120003661A1, “METHODS AND DEVICES FOR THE SELECTIVE DETECTION OF MICROORGANISMS” (C3 JIAN, INC., priority 2010, published 2012).
Entries after “also recorded” stand apart in the source; their conditions may differ. Where two headings read alike, the source gives them in different places.

Experiments:
[1] = test system: S. mutans; experiment: MIC of antimicrobial peptides (Table 4); format: cell-based, Streptococcus mutans
[2] = test system: bacteria, fungi, and/or yeasts; format: binding
[3] = microorganism(s) listed as target(s) of the targeting peptide, wrapped target lists given cell by cell
[4] = microorganism(s) the targeting peptide binds, as listed in Table 2
[5] = microorganism(s) that the targeting peptide binds, as listed in Table 2

Substance | Target(s) [2, 3] | Target(s) [2, 4] | further results
KILKKLFKFVF [K-12] |  |  | Organism MIC [1]: S. mutans, 8 μM
GLGRVIGRLIKQIIWRR [K-1] |  |  | Organism MIC [1]: S. mutans, 25 μM
KKFKKFKVLKIL [K-18] |  |  | Organism MIC [1]: S. mutans, 16 μM
LRKFLHKLF [K-14] |  |  | Organism MIC [1]: S. mutans, 8 μM
FTRKFLKFLHL [K-17] |  |  | Organism MIC [1]: S. mutans, 8 μM
VYRKRKSILKIYAKLKGWH [K-2] |  |  | Organism MIC [1]: S. mutans, 12.5 μM
GWLKMFKKIIGKFGKF [K-21] |  |  | Organism MIC [1]: S. mutans, 8 μM
LRKNLRWLF [K-15] |  |  | Organism MIC [1]: S. mutans, 4 μM
PF-014 (HPTDNKHN) | E. coli, C. jeikeium |  | 
1T-42 (TVLDWLSLALATGLFVYLLVALLRADRA) |  | S. aureus, S. epidermidis, C. xerosis,; also recorded: C. striatum, P. aeruginosa | 
1T-49 (SLVRIHDQQPWVTRGAFIDAARTCS) |  | S. aureus, S. epidermidis, C. jeikeium,; also recorded: P. aeruginosa | 
1T-6 (KFINGVLSQFVLERK) |  | S. mutans | 
PF-033 (MFIFKTTSKSHFHNNVKSLECIKIPINKNR) | S. epidermidis, M. luteus, E. coli,; also recorded: P. aeruginosa, C. albicans,; also recorded: MRSA, S. pneumoniae |  | 
Rv3760 (GLITVFAGTARILQLRRAAKKTHAAALR) | C. albicans |  | 
1T-135 (FESLLPQATKKIVNNKGSKINKIF) |  | A. naeslundii, P. gingivalis, S. epidermidis,; also recorded: S. gordonii, S. mitis,; also recorded: S. mutans, S. oralis, S. salivarious,; also recorded: S. sanguinis | 
1T-266 (RAGTWLVVDEIR) | S. sanguinis |  | 
PF-008 (MIEIGSIAYLNGGSKKYNHILNQENR) | S. epidermidis, M. luteus, MRSA,; also recorded: C. jejuni |  | 
PF-C181 (KMRAGQVVFIYKLILVLLFYVLQKLFDLKKGCF) |  |  | Target(s) [2, 5]: P. gingivalis
PF-S004 (VLLNIFRTLLEFFSPSNAPGAEDVPLPDTQA) |  |  | Target(s) [2, 5]: S. epidermidis, MRSA, C. jeikeium
PF-026 (SIHFIN) | S. epidermidis, M. luteus, P. mirabilis,; also recorded: C. albicans, MRSA, E. faecalis,; also recorded: C. jeikeium |  | 
PF-143 (LSPRPIIVSRRSRADNNNDWSR) | S. epidermidis, MRSA, C. jeikeium |  | 
1T-105 (GEGLPPPVLHLPPPRMSGR) |  | S. epidermidis, S. gordonii, S. mitis,; also recorded: S. mutans, S. oralis | 
PF-041 (ELLVILPGFI) | MRSA |  | 

Substance | Target(s) [2, 3] | Target(s) [2, 4] | further results
PF-016 (RKQYDDLSFNFLY) | S. epidermidis, E. faecalis, C. jeikeium |  | 
1T-248 (IGGALNSCG) |  | S. sanguinis | 
1T-203 (YPFCLATVDHLPEGLSVTDYERVQRLVSQFLLNKEER) |  | A. naeslundii, F. nucleatum, P. gingivalis,; also recorded: S. epidermidis, S. gordonii,; also recorded: S. mitis, S. mutans, S. oralis,; also recorded: S. salivarious, S. sanguinis | 
PF-135 (PPARPARIPQTPTLHGASLFRQRS) | S. epidermidis, M. luteus, E. coli,; also recorded: P. aeruginosa, MRSA, C. jeikeium,; also recorded: M. smegmatis |  | 
PF-C093 (EKLGTMV) |  |  | Target(s) [2, 5]: A. naeslundii, F. nucleatum, S. mutans
PF-028 (ALDCSEQSVILWYETILDKIVGVIK) | S. epidermidis, M. luteus, MRSA |  | 
PF-C003 (FCSVDHDVITIAADHVKQGAEA) |  |  | Target(s) [2, 5]: A. naeslundii, P. gingivalis, S. mutans
PF-164 (EEVSRALAGIGLGLGCRIG) | S. epidermidis, M. luteus, E. coli,; also recorded: C. jeikeium |  | 
1T-52 (DEYPAKLPLSDKGATEPRRH) |  | S. aureus, C. xerosis, P. aeruginosa | 
PF-792 (ALHASGIQAI) |  |  | Target(s) [2, 5]: S. mutans
PF-634 (MPKARPVNHNKKKSKITIKSNFTLFYMFNP) | C. albicans hyphae |  | 
PF-136 (LRGRVGRITACGYPP) | S. epidermidis, M. luteus, P. mirabilis,; also recorded: E. coli, MRSA, E. faecalis,; also recorded: C. jeikeium, C. jejuni, M. smegmatis |  | 
1T-134 (SRLVREIKKKCRKS) |  | A. naeslundii, F. nucleatum, P. gingivalis,; also recorded: S. epidermidis, S. gordonii,; also recorded: S. mitis, S. mutans, S. oralis,; also recorded: S. salivarious, S. sanguinis | 
PF-784 (MAMTTVDNIVGLVIAVALMAFLFAALLFPEKF) |  |  | Target(s) [2, 5]: Mycobacteria spp.
PF-053 (KLFGQWGPELGSIYILPALIGSIILIAIVTLILRAMRK) | S. epidermidis, M. luteus, E. coli,; also recorded: P. aeruginosa, C. albicans,; also recorded: MRSA, S. pneumoniae, E. faecalis |  | 
1T-256 (KGKSLMPLLKQINQWGKLYL) | S. sanguinis |  | 
1T-225 (RRSLGNSASFAEWIEYIRYLHYIIRVQFIHFFSKNKKI) |  | A. naeslundii, F. nucleatum, P. gingivalis,; also recorded: S. epidermidis, S. gordonii,; also recorded: S. mitis, S. mutans, S. oralis,; also recorded: S. salivarious, S. sanguinis | 
1T-30 (GKAKPYQVRQVLRAVDKLETRRKKGGR) |  | S. aureus, S. epidermidis, C. xerosis,; also recorded: C. striatum, P. aeruginosa | 
1T-175 (GEPGSHSGDL) |  | A. naeslundii, F. nucleatum, P. gingivalis,; also recorded: S. epidermidis, S. gordonii,; also recorded: S. mitis, S. mutans, S. oralis,; also recorded: S. salivarious, S. sanguinis | 
1T-82 (FGVGVGIALFMAGYAIGKDLRKKFGKSC) |  | S. pneumoniae | 
PF-C137 (QRMYWFKRGFETGDFSAGDTFAELK) |  |  | Target(s) [2, 5]: A. naeslundii, F. nucleatum, P. gingivalis,; also recorded: S. mutans
1T-165 (CYDSFDFSIFVTFANRMKLSVGS) |  | A. naeslundii, F. nucleatum, P. gingivalis,; also recorded: S. epidermidis, S. gordonii,; also recorded: S. mitis, S. mutans, S. oralis,; also recorded: S. salivarious, S. sanguinis | 
PF-057 (TMIVISIPRFEEYMKARHKKWM) | S. epidermidis, M. luteus, P. mirabilis,; also recorded: E. coli, P. aeruginosa,; also recorded: C. albicans, MRSA, S. pneumoniae,; also recorded: E. faecalis, C. jeikeium,; also recorded: C. jejuni |  | 

Substance | Target(s) [2, 3] | Target(s) [2, 4] | further results
1T-118 (TASPPAPSDQGLRTAFPATLLIALAALARISR) |  | A. naeslundii, F. nucleatum, P. gingivalis,; also recorded: S. epidermidis, S. gordonii,; also recorded: S. mitis, S. mutans, S. oralis,; also recorded: S. salivarious, S. sanguinis | 
1T-10 (SPAGLPGDGDEA) |  | M. xanthus | 
1T-47 (VIKISVPGQVQMLIP) |  | S. mutans, S. epidermidis, P. aeruginosa | 
PF-S018 (GMPQIPRLRI) | yeast and hyphal forms |  | Target(s) [2, 5]: S. epidermidis, M. luteus, C. albicans,; also recorded: MRSA, E. faecalis, C. jeikeium,; also recorded: C. jejuni
PF-005 (MESIFKIKLMNGICRSENMNMKKKNKGEKI) | S. epidermidis, E. coli, MRSA, S. pneumoniae,; also recorded: E. faecalis |  | 
PF-013 (LIQKGLNQTFIVVIRLNNFIKKS) | M. luteus, P. mirabilis, E. coli, P. aeruginosa,; also recorded: MRSA, S. pneumoniae,; also recorded: C. jeikeium, C. jejuni |  | 
1T-97 (GVAERNLDRITVAVAIIWTITIVGLGLVAKLG) |  | A. naeslundii, F. nucleatum, P. gingivalis,; also recorded: S. epidermidis, S. gordonii,; also recorded: S. mitis, S. mutans, S. oralis,; also recorded: S. salivarious, S. sanguinis | 
PF-075 (FVNSLIMKDLSDNDMRFKYEYYNREKDT) | M. luteus, E. coli, P. aeruginosa,; also recorded: MRSA, C. jeikeium |  | 
PF-C120 (ASLSTMTFKVMELKELIILLCGLTMLMIQTEFV) |  |  | Target(s) [2, 5]: A. naeslundii, F. nucleatum, P. gingivalis,; also recorded: S. mutans, T. denticola
1T-261 (SFEKNKIENNLKIAQAYIYIKPKPRICQA) | F. nucleatum, S. mutans, S. oralis,; also recorded: S. sanguinis |  | 
PF-157 (HTAVVWLAGVSGCVALSHCEPA) | S. epidermidis, M. luteus, P. mirabilis,; also recorded: E. coli, P. aeruginosa,; also recorded: C. albicans, MRSA, S. pneumoniae,; also recorded: E. faecalis, C. jeikeium,; also recorded: C. jejuni |  | 
Rv2660c (RSPDFVDETAGQSWCAILGLNQFH) | C. albicans |  | 
1T-263 (FIAVSFTGNPATFKLVIGCKADN) | A. naeslundii, F. nucleatum, P. gingivalis,; also recorded: S. epidermidis, S. gordonii,; also recorded: S. mitis, S. oralis, S. salivarious,; also recorded: S. sanguinis |  | 
PF-636 (LVRLA) | C. albicans hyphae |  | 
PF-140 (FHRRVIRASEWALTTRSFSTPLRSAAR) | S. epidermidis, M. luteus, P. mirabilis,; also recorded: E. coli, P. aeruginosa,; also recorded: C. albicans, MRSA, S. pneumoniae,; also recorded: E. faecalis, C. jeikeium,; also recorded: C. jejuni, M. smegmatis |  | 
1T-145 (VEAGKRNISLENIEKISKGLGISISELFKYIEEGEDKIG) |  | S. mitis, S. mutans, S. oralis | 
1T-55 (NHKTLKEWKAKWGPEAVESWATLLG) |  | C. xerosis, P. aeruginosa | 
1T-271 (FLIQKFLLIKTFPPYRKKYVVIVSQTGTA) | A. naeslundii, F. nucleatum, P. gingivalis,; also recorded: S. epidermidis, S. gordonii,; also recorded: S. mitis, S. mutans, S. oralis,; also recorded: S. salivarious, S. sanguinis |  | 
PF-C091 (ASNTPRFVRLTLFNFYSKIWNVTHLFLFNNL) |  |  | Target(s) [2, 5]: A. naeslundii, F. nucleatum, P. gingivalis,; also recorded: S. mutans, T. denticola
1T-45 (WTKPSFTDLRLGFEVTLYFANR) |  | S. aureus, S. epidermidis, C. striatum,; also recorded: P. aeruginosa | 
1T-270 (VHEFDIQKILQNR) | F. nucleatum, S. mutans, S. oralis,; also recorded: S. sanguinis |  | 
PF-152 (VGYFIWKDSHSRKG) | S. epidermidis, C. albicans,; also recorded: MRSA, E. faecalis, C. jeikeium |  | 
1T-39 (FGFCVWMYQLLAGPPGPPA) |  | S. mutans, P. aeruginosa | 
